The source of these data is patent publication US9655975B2, “Prodrug using nitroimidazole” (UNIVERSITY OF TSUKUBA, priority 2012, dated 2017).

Assay type in all cases: cell-based
In data set [1] the test system is Human pancreatic cancer cells (MIA PaCa-2). Nature of the data set: Incubation of Compound 5 in MIA PaCa-2 cells under low oxygen (Example 5), release by LC/MS. The conditions noted are these: Compound 5 at 10 μM, MIA PaCa-2, 20% O2 vs 0.1% O2, LC/MS, FIG. 3. The method, then: Human pancreatic cancer cells (MIA PaCa-2, acquired from Riken Cell Bank) were prepared as a suspension having a cell count of 1×10^4 cells/mL), and dispensed into a 96-well plate. After 24 hours, Compound 5 was added to a concentration of 10 μM and the cells were cultured, in a normal oxygen concentration incubator (20% O2) or at a low-oxygen work station (0.1% O2). After a given time had elapsed, the culture medium was recovered, trypsin was added and the cells were recovered. The recovered cells were disrupted by sonic treatment, the compound was extracted with acetonitrile, and analysis by LC/MS was carried out under the following conditions.
Column used: Lachrom Ultra C18 (particle size, 2 μm; 2 mm×50 mm) column
Measurement wavelength: 220 nm
Eluent A: 0.1% TFA-containing milliQ
Gradient: 95:5 (Eluent A:Eluent B)→95:5 (5 minutes)→30:70 (15 minutes)
By carrying out this measurement, the amount of compound released in a low-oxygen environment and the amount of compound released in a normal oxygen environment were compared.

Another data set concerns cultured cells. The experiment in a line: Incubation of Compound 5 in cultured cells under low oxygen (Example 4), release of naphthylmethylamine by HPLC. The conditions noted are these: Compound 5 at 1 mM, 6 hours, 20% O2 vs 1% O2, HPLC, FIG. 2. Here is the method:
This example was carried out to confirm that Compound 5 is reduced in cells within a hypoxic environment, and that naphthylmethylamine is released by a subsequent intramolecular cyclization reaction.
A cell suspension prepared to a cell count of 1×10^4 cells/mL was dispensed into a 96-well plate, and the cells were cultured by 24 hours of incubation at 37° C. After 24 hours, the synthesized Compound 5 was added to the cells in an amount of 1 mM. Following addition, the cells were cultured for 6 hours each in a normal oxygen concentration incubator (20% O2) or at a low-oxygen work station (1% O2). The culture medium was then recovered, 50 μL of Trypsin/EDTA was added and 5 minutes of incubation was carried out, following which the cells were stripped away and added to the medium that was earlier recovered. Next, the recovered sample was freeze-dried overnight, 200 μL of acetonitrile was added, and 30 minutes of ultrasonic cleaning was carried out. In addition, dead cells were precipitated by centrifugal separation (3,000 rpm, 10 min), the supernatant was recovered, and the acetonitrile was removed with a centrifugal evaporator. Next, 200 μL of methanol (for LC/MS) was added to the Eppendorf tube used in centrifugation, the tube contents were passed through a filter (0.2 μm), and LC/MS measurement and high-performance liquid chromatography (HPLC) measurement were carried out. […]

Data set [2] deals with Human pancreatic cancer cells (MIA PaCa-2). Nature of the data set: Evaluation of cell survival rate by WST assay, normal vs low oxygen (Example 7, Comparative Example). Here is the method: Human pancreatic cancer cells (MIA PaCa-2, acquired from Riken Cell Bank) were dispensed at a density of 5,000 cells/well and cultured for 24 hours in Dulbecco's modified Eagle medium (DMEM), following which Compound 7 was added to the specified concentration and 6 hours of culturing was carried out at a normal oxygen concentration (20%) or a low oxygen concentration (0.1%). After culturing, DMEM medium replacement was carried out, the compound was removed, and 48 hours of culturing was carried out in a normal oxygen concentration incubator, following which the cell survival rate was analyzed by a WST assay.
Compound 8 below, which is mentioned in WO 2009/018163 A1, was furnished for use. The cell survival rates were compared in tests conducted by the method described in Example 7 on both Compound 8 and a compound within the scope of this invention (aside from the fact that the corresponding linker was —CH2CH2C(═O)—, the manner of bonding between nitroimidazole and the drug was the same; Compound 7 of Example 6).

Data set [3] has the same test system. The experiment in a line: Release of drug from prednisolone prodrug in low-oxygen environment (Example 16), LC/MS. The conditions noted are these: Compound 13 at a concentration of 10, one hour, 20% O2 vs 0.1% O2, LC/MS, FIG. 8. Here is the method:
Human pancreatic cancer cells (MIA PaCa-2, acquired from Riken Cell Bank) were prepared as a suspension having a cell count of 1×10^4 cells/mL), and dispensed into a 96-well plate. After 24 hours, Compound 13 was added to a concentration of 10 and the cells were cultured in a normal oxygen concentration incubator (20% O2) or at a low-oxygen work station (0.1% O2). One hour layer, the culture medium was recovered, trypsin was added, and the cells were recovered. The recovered cells were disrupted by sonic treatment and the compound was extracted with acetonitrile, following which analysis by LC/MS of the amount of prednisolone released was carried out under the following conditions.
Column used: TSKgel ODS-100Z (particle size, 3 μm; 2 mm×75 mm) column
Measurement wavelength: 250 nm
Eluent A: 0.1 M ammonium acetate
Gradient: 40:60 (Eluent A:Eluent B)→10:90 (20 minutes)
By carrying out this measurement, the amount of compound released in a low-oxygen environment was compared with the amount released in a normal oxygen environment.

For `O=C(CCn1ccnc1[N+](=O)[O-])NCc1cccc2ccccc12` [Compound 5, N-Naphthylmethyl-3-(2-Nitro-1H-Imidazolyl)propionylamide], the “amount of naphthylmethylamine released in low-oxygen vs normal oxygen environment” value (in data set [1]; with cultured cells) was “much naphthylmethylamine is released in a low-oxygen environment” in each case.
`COc1cccc2c1C(=O)c1c(O)c3c(c(O)c1C2=O)CC(O)(C(=O)CO)CC3OC1CC(NC(=O)CCn2ccnc2[N+](=O)[O-])C(O)C(C)O1` (centres unmarked) [Compound 7]: the “cell survival rate at low oxygen concentration compared with normal oxygen concentration” value in data set [2] (6 hours at 20% or 0.1% O2, then 48 hours normal oxygen, WST assay, FIG. 4) was “significantly lowers the survival rate of human pancreatic cancer cells at a low-oxygen concentration compared with a normal oxygen concentration”. For the same compound, the “cytotoxicity compared with known Compound 8” value in data set [2] (method of Example 7, MIA PaCa-2, FIG. 5) is listed as “significantly higher cytotoxicity”.
Take `C[C@]12C=CC(=O)C=C1CC[C@@H]1[C@@H]2[C@@H](O)C[C@@]2(C)[C@H]1CC[C@]2(O)C(=O)COC(=O)CCn1ccnc1[N+](=O)[O-]` [Compound 13]: the “amount of prednisolone released in low-oxygen vs normal oxygen environment” value in data set [3] is “much prednisolone is released in a low-oxygen environment”.
